Measurements from patent publication US9487462B2, “Inhibitors of matrix metalloproteinases” (PharmaHungary 2000 Kft., priority 2010, dated 2016).
Read-outs that look alike come from different tables or passages of the source.

Experiments:
[1] = target: T1, MMP13 (Homo sapiens (Human), UniProt P45452); test: In vitro zymography assay (gelatin), MMP-13; format: biochemical; settings: % ± SD
Description: (§1) MMP-2 and MMP-9 enzymes were isolated from rat hearts and from rat spleen while human, recombinant MMP-1 and MMP-13 enzymes used were commercial. MMP-2, -9, -13 enzymes were separated by electrophoresis during non-reducing conditions on 8% SDS-polyacrylamide gels copolymerized with 2 mg/ml gelatin from porcine skin (Sigma Aldrich) while MMP-1 was separated under the same conditions on 8% SDS-polyacrylamide gels copolymerized with 2 mg/ml casein (Sigma Aldrich). […] In case of MMP-13 p-aminophenylmercuric acetate (APMA) was used for enzyme activation at 37° C. for 30 min. After electrophoresis, gels were washed in 2.5% Triton-X 100 with agitation and then incubated for 20 hrs at 37° C. in enzyme incubation buffer (50 mM Tris-HCl, pH 7.5, containing 5 mM CaCl2, 200 mM NaCl) with or without MMP inhibitor. Zymographic gels were stained in Coomassie Brilliant Blue R-250 and de-stained. Gelatin and casein zymograms were scanned. MMP activity is detected as a white zone on a blue background and the clear bands in the gel can be quantified by densitometry. The obtained density values were measured and % inhibition values calculated (Kupai et al., 2010). The table below summarizes the prescreen inhibition values determined for different MMP inhibitors on MMP1, -2, -9, -13.

[2] = target: T2, MMP1 (Homo sapiens (Human), UniProt P03956); test: In vitro zymography assay (casein), MMP-1; format: biochemical; settings: % ± SD
Description: as §1
Target sequence in this assay (P03956 100-469): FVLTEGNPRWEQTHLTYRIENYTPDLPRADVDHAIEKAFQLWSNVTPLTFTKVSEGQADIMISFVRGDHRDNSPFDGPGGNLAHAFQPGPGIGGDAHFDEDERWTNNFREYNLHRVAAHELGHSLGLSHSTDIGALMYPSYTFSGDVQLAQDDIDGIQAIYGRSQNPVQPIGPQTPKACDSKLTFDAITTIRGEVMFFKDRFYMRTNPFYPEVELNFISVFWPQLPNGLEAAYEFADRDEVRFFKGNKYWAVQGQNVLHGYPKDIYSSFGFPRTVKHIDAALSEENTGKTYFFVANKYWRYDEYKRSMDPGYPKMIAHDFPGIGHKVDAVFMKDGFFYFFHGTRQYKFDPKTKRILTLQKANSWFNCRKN

[3] = target: MMP-9 (Rattus norvegicus (Rat), UniProt P50282); test: In vitro zymography assay (gelatin), MMP-9; format: biochemical; settings: % ± SD
Chain of MMP-9 (P50282 108-708): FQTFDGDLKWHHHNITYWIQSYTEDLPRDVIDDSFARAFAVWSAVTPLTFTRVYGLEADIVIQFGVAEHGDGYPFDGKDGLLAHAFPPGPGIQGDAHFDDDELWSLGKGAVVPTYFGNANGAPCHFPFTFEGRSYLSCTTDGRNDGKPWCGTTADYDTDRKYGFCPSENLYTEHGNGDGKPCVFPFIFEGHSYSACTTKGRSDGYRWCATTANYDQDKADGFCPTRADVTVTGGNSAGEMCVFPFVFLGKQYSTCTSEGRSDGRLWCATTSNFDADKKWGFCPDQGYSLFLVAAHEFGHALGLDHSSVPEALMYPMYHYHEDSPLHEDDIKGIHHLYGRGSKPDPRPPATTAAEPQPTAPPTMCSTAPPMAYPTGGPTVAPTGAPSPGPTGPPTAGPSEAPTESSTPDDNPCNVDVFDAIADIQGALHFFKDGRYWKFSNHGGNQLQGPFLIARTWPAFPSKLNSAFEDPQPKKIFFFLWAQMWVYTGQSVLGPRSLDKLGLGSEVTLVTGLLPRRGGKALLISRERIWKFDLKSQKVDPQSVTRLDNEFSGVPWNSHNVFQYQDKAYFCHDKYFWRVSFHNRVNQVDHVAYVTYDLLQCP
Description: as §1

[4] = target: MMP2 (Homo sapiens, UniProt P08253); test: MMP activity assay (fluorogenic substrate), MMP2 catalytic domain; format: biochemical
[5] = target: MMP-2 (Rattus norvegicus (Rat), UniProt P33436); test: In vitro zymography assay (gelatin), MMP-2; format: biochemical
Chain of MMP-2 (P33436 110-662): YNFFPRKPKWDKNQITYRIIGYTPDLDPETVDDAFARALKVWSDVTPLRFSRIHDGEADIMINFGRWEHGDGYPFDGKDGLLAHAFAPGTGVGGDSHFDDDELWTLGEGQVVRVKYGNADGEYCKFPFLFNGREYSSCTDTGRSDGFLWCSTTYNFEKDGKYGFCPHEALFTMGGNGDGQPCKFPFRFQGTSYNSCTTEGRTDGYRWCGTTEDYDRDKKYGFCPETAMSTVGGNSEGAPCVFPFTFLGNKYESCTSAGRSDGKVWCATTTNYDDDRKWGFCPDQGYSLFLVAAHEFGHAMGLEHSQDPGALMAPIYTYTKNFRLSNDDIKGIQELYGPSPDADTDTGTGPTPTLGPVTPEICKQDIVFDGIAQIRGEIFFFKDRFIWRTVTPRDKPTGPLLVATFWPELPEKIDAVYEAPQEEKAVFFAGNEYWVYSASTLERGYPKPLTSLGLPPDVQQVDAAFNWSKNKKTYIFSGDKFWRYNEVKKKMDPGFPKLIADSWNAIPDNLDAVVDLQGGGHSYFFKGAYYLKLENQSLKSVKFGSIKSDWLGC
Description: as §1

[6] = target: T1, MMP13; test: MMP activity assay (fluorogenic substrate), MMP13 catalytic domain; format: biochemical; settings: Table 2; read-out: MMP13 IC50
[7] = Cytotoxicity, alamarBlue viability, HCT116; format: cell-based; settings: human, HCT116 colon tumor cells, 48 hours incubation, read-out: HCT116 LC50
Method in brief: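 Cells exposed to compound dilutions for 48 hours, then alamarBlue added for 4 hours; fluorescence read at ex 540/em 590 nm. IC50 from six concentrations run in duplicate.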

[8] = target: T2, MMP1; test: MMP activity assay (fluorogenic substrate), MMP1; format: biochemical
Target sequence in this assay (P03956 100-469, species assumed): as the sequence (P03956 100-469) above

[9] = read-out: % inhibition MMP-1 (52 kDa)
[10] = read-out: % inhibition MMP-1 (55 kDa)

**Q.** With `O=C(O)c1csc(CN(Cc2ccc(F)cc2)Cc2ccc(OCc3cccnc3)cc2)n1` [Compound 1, 2-({[(4-Fluorophenyl)methyl]({[4-(pyridin-3-ylmethoxy)phenyl]methyl})amino}methyl)-1,3-thiazole-4-carboxylic acid] as the molecule, how does the inhibition at 1 µM ([1]; 1 μM, read-out: % inhibition MMP-13 (50 kDa)) read?
**A.** Its inhibition at 1 µM is 54.4 ± 2.33%.

**Q.** What about the “% inhibition MMP-13 (50 kDa)” value ([1]; 100 μM) of the same molecule?
**A.** The value was “No inhibition”.

**Q.** And the inhibition at 1 µM [2, 9]?
**A.** The inhibition at 1 µM was 25.9 ± 9.51%.

**Q.** And the inhibition at 1 µM [2, 10]?
**A.** The inhibition at 1 µM was 29.2 ± 38.7%.

**Q.** What about the inhibition at 100 µM [2, 9] of the same molecule?
**A.** The inhibition at 100 µM was 58 ± 12.6%.

**Q.** And the inhibition at 100 µM [2, 10]?
**A.** The inhibition at 100 µM was 95.3 ± 8.17%.

**Q.** And the “% inhibition MMP-9 (92 kDa)” value ([3]; 1 μM)?
**A.** The value was “No inhibition”.

**Q.** And the “% inhibition MMP-9 (92 kDa)” value ([3]; 100 μM)?
**A.** The value was “No inhibition”.

**Q.** What about the IC50 ([4]; Table 2, read-out: MMP2 IC50) of the same molecule?
**A.** The IC50 was 5.7 µM.

**Q.** And the IC50 ([4]; read-out: IC50 on MMP2)?
**A.** The IC50 was 5.7 µM.

**Q.** And the inhibition at 1 µM ([5]; 1 μM, % ± SD, read-out: % inhibition MMP-2 (72 kDa))?
**A.** Its inhibition at 1 µM is 100%.

**Q.** And the inhibition at 100 µM ([5]; 100 μM, % ± SD, read-out: % inhibition MMP-2 (72 kDa))?
**A.** Its inhibition at 100 µM is 100%.

**Q.** What about the “selectivity in the inhibition of different MMP isoenzymes” value ([5]; summary in words, MMP1, MMP2, MMP9, MMP13) of the same molecule?
**A.** Its value is “highly selective for MMP2”.

**Q.** And the IC50 ([5]; zymography, Table 8, read-out: IC50 on MMP-2)?
**A.** The IC50 was 11.2 µM.

**Q.** And the IC50 [6]?
**A.** Its IC50 is 2.5 µM.

**Q.** And the CC50 at 48 h [7]?
**A.** The CC50 at 48 h was 11 µM.

**Q.** What about the IC50 ([8]; Table 2, read-out: MM1 IC50) of the same molecule?
**A.** The IC50 was 51 µM.

**Q.** And the IC50 ([8]; read-out: IC50 on MMP1)?
**A.** Its IC50 is 46 µM.
